Entries after “also recorded” stand apart in the source; their conditions may differ. Square brackets hold non-standard residues; d marks the D form. Ends that are not written are not given here. Linker = not defined here
Tests used:
[1] = system: adoptive transfer models in mice; conditions: cited from earlier work
[2] = system: NOD/ShiLtJ T cells on TNFα-activated MS1 islet endothelial cells; experiment: Parallel plate flow chamber T cell adhesion assay with SDF-1 peptide mimetic; format: cell-based, mouse; conditions: 150 mPa; for TNFα-induced firm adhesion of T cells (fold change in number of adherent cells): MS1 cells treated 10 minutes with mimetic at 200, 1000 or 5000 ng/ml after 10 ng/ml TNFα, versus TNFα alone
Experimental: Hydrodynamic flow chamber assays were performed as otherwise described in C. Sharp et al. (2008). Briefly, T cells isolated as described above were labeled with CellTracker Green (C7025; Life Technologies, Carlsbad, Calif., USA), rinsed, and resuspended at a concentration of 2×10^6 cells/ml in phenol red-free Hanks' balanced salt solution (HBSS). The cells were placed in a beaker that had been previously coated with Sigmacote (Sigma-Aldrich), kept at 37° C., and stirred at 60 rev/min. A flow chamber insert and gasket with a 0.5 cm flow width and 250 μm thickness (GlycoTech, Gaithersburg, Md., USA) were used with 35 mm cell culture dishes containing confluent MS1 cell cultures to form a parallel plate flow chamber. To activate endothelial cells, MS1 cells were treated for 4 to 6 hours at 37° C. with 10 ng/ml recombinant mouse TNFα (T7539; Sigma).
For the SDF-1 peptide mimetic T cell adhesion assay, MS1 cells were rinsed with HBSS and treated for 10 minutes with an SDF-1 peptide mimetic (AYWKENKEQ with two branched lysines as a linker between the two motifs, SEQ ID NO 1) at […]. This peptide was a linearized version of a cyclized SDF-1 analogue reported by Tudan et al., “C-terminal cyclization of an SDF-1 small peptide analogue dramatically increases receptor affinity and activation of CXCR4 receptor,” J. Med. Chem., vol. 45, pp. 2024-31 (2002). T cells were pumped through polypropylene tubing by a syringe pump (KD Scientific, Holliston, Mass., USA) across the endothelial monolayer at a physiological shear stress of 150 mPa. Real-time digital video images (minimum 28 frames/second) were captured with an epifluorescence microscope (TE-2000 Eclipse; Nikon, Tokyo, Japan) and digital camera (Model C4742-95-12ER: Hamamatsu Photonics, Hamamatsu, Japan). Simple PCI software (Hamamatsu Photonics) was used to analyze the video and to measure T cell rolling velocities. Cells were considered firmly adherent if they remained stationary for 10 seconds within the field of view. A minimum of three videos per plate and four plates per condition were used for analysis.
We examined whether a linear SDF-1 peptide mimetic containing the receptor-binding site could replicate the effect of full length SDF-1 in blocking adhesion of T cells to activated endothelium. MS1 cells were treated for 4 hours with 10 ng/ml TNFα, followed by treatment for 10 minutes with an SDF-1 peptide mimetic at 200, 1000, or 5000 ng/ml. Cells were then tested in a parallel plate flow chamber cell adhesion assay. Fluorescently labeled T cells obtained from NOD/ShiLtJ mice flowed over the endothelial monolayers at 150 mPa. […] Leucocyte adhesion videos were analyzed to calculate T cell rolling velocity and to determine whether the decrease in firm adhesion was due to a decreased number of rolling cells.

NOD/LtSz Rag1^−/− mice = experiment: Diabetes adoptive transfer of diabetogenic splenocytes; format: in vivo, mouse; conditions: for blood glucose levels compared with PBS treatment: 4 to 5 weeks post-transfer
Experimental: Single cell suspensions of splenocytes were isolated from spleens of spontaneously diabetic female NOD/ShiLtJ mice as otherwise described in J. Glawe et al. (2009) Genetic deficiency of Itgb2 or ItgaL prevents autoimmune diabetes through distinctly different mechanisms in NOD/LtJ mice. Diabetes 58: 1292-1301, Erythrocytes were lysed with 150 mM NH4Cl, 1.0 mM/l KHCO3, and 0.1 mM disodium EDTA, and then resuspended in PBS at 200×10^6 splenocytes per ml. Female NOD/LtSz Rag1^−/− mice were injected retro-orbitally with 20×10^6 splenocytes.
The recipient mice were then injected retro-orbitally, either once or three times per week, with the SDF-1 peptide mimetic CTCE-0214 (SEQ ID NO. 2, KPVSLSYRCPCRFF-Linker-LKWIQEYLEKALN-OH) (British Canadian BioSciences, Vancouver, BC, Canada) at 1 or 10 mg/kg, or with PBS. See K Li, et al., “Small peptide analogue of SDF-1a supports survival of cord blood CD34+ cells in synergy with other cytokines and enhances their ex vivo expansion and engraftment into nonobese diabetic/severe combined immunodeficient mice,” Stem Cells, vol, 24, pp. 56-64 (2006); R. Zhong et al., “Small peptide analogs to stromal derived factor 1 enhance chemotactic migration of human and mouse hematopoietic cells,” Experimental Hematology, vol 32, pp. 470-475 (2004); A. Faber at al., “The many facets of SDF-1, CXCR4 agonists and antagonists on hematopoietic progenitor cells,” Journal of Biomedicine and Biotechnology, Article ID 26065; doi: 10.1155/200726065 (2007). Blood glucose was measured twice per week via a tail stick assay (Ascensia Glucometer Elite; Bayer, Leverkusen, Germany). Mice were considered hyperglycaemic following two consecutive measurements at 13.9 mM (250 mg/dl) glucose. Another SDF-1 mimetic that could be used is the CTCE-9908 peptide disclosed by A. Faber at al. (2007).

CD34^+ cells = conditions: at much higher concentrations than SDF-1; cited from earlier work
[3] = system: NOD/ShiLtJ T cells on VCAM-1- and ICAM-1-coated plates; experiment: SLIT2 T cell detachment assay on VCAM-1- and ICAM-1-coated plates; format: cell-based, mouse; conditions: SDF-1 plus 20 μg/ml SLIT2 versus SDF-1 alone
Experimental: T cell detachment assays were performed as otherwise described in C. Sharp et al. (2008). T cells were injected into the tubing via an inlet port upstream of the flow chamber at a concentration of 2×10^6 cells/ml and allowed to firmly adhere under static conditions for 15 minutes. Next, shear stress was initiated and increased in a step-wise manner every 30 seconds as follows: 35, 56, 91, 224, 504, and 980 mPa. The assay was recorded by video, which was analyzed to determine the percentage of cells detached at the end of each shear stress interval. For the anti-ROBO1 detachment assay, MS1 cells were treated for […] at 37° C. with TNFα as described above and then with 100 ng/ml recombinant mouse SDF-1α (460-SD; R&D Systems). T cells were pre-treated for 30 minutes at 37° C. with 20 μg/ml ROBO1 blocking antibody (GT15144; Neuromics, Edina, Minn., USA) or isotype control (GT15900; Neuromics).
For the SLIT2 detachment assay, the following modifications were made. Vascular cell adhesion molecule 1 (VCAM-1)- and intercellular cell adhesion molecule 1 (ICAM-1)-coated plates were substituted for confluent monolayers of MS1 cells to isolate the specific ligand and receptor interactions involved. Plates were treated by tracing five 5 mm diameter circles aligned in one row in the center of a 100 mm diameter tissue culture dish using a PAP pen, and then applying 15 μl of 1 mg/ml protein A to each circle for 30 minutes. Plates were rinsed twice with PBS and blocked for 30 minutes with 5% (wt/vol) BSA in PBS. Plates were rinsed and each circle was then treated for 30 minutes with 15 μl of a solution containing 5 μg/ml ICAM-1/Fc chimera (796-IC; R&D Systems) and 5 μg/ml VCAM-1/Fc chimera (643-VM; R&D Systems), or PBS (control). Plates were rinsed and stored at 4° C. T cells were suspended in HBSS containing, 10 μg/ml heparin sodium and treated for 15 minutes at 37° C. with 250 ng/ml SDF-1 and 20 μg/ml recombinant mouse SLIT2 (5444-SL; R&D Systems) before use. A Glycotech rectangular flow chamber with a 250 μm thick gasket and a 1 cm wide flow path was used. […]

## c1cc(CN2CCCNCCNCCCNCC2)ccc1CN1CCCNCCNCCCNCC1 [AMD3100]
[1]; disruption of SDF-1-CXCR4 binding
  development of diabetes: accelerate the development of diabetes
[1]; mouse, in vivo
  beta cell apoptosis: induce beta cell apoptosis

## AYWKENKEQ with two branched lysines as a linker between the two motifs (also: two branched lysines as a linker between the two motifs) [SDF-1 peptide mimetic, linearized version of a cyclized SDF-1 analogue reported by Tudan et al]
[2]
  TNFα-induced firm adhesion of T cells (fold change in number of adherent cells): prevented NOD T cell adhesion; also recorded: significantly reduced; also recorded: reversed
[2]; TNFα-treated MS1 cells, data not shown
  number of rolling cells: did not decrease
[2]; TNFα-treated endothelial cells, versus control
  T cell rolling velocity: did not significantly affect

## KPVSLSYRCPCRFF-Linker-LKWIQEYLEKALN-OH (KPVSLSYRCPCRFF[Linker]LKWIQEYLEKALN-OH; cysteine pairing not given here; reading uncertain; also: printed as KPVSLSYRCPCRFF-Linker-LKWIQEYLEKALN-OH) [CTCE-0214, 2, small peptide CXCR4 agonist from British Canadian BioSciences]
NOD/LtSz Rag1^−/− mice; 1 mg/kg
  progression of autoimmune diabetes: almost no effect
NOD/LtSz Rag1^−/− mice; 1 mg/kg three times per week
  blood glucose levels compared with PBS treatment: not
NOD/LtSz Rag1^−/− mice; 10 mg/kg once per week, retro-orbital, 5.5 and 6 weeks post-transfer
  blood glucose levels compared with PBS-treated mice: significantly reduced glucose levels
NOD/LtSz Rag1^−/− mice; 10 mg/kg one time per week
  development of hyperglycaemia compared with PBS treatment: delayed development of hyperglycaemia
NOD/LtSz Rag1^−/− mice; 10 mg/kg three times per week
  development of hyperglycaemia compared with PBS treatment: delayed development of hyperglycaemia
  blood glucose levels compared with PBS treatment: significantly reduced glucose levels
NOD/LtSz Rag1^−/− mice; 10 mg/kg where a dose is stated
  adoptive transfer / progression of autoimmune diabetes, onset of hyperglycaemia: significantly delayed the onset of hyperglycaemia; also recorded: therapeutically beneficial; also recorded: effectively delayed adoptive transfer of diabetes; also recorded: slowed the development of diabetes
NOD/LtSz Rag1^−/− mice; once per week versus three times per week
  effect of dosing frequency on incidence of hyperglycaemia: better reduction in the incidence of hyperglycaemia at a dosing of once per week; also recorded: more beneficial effect at once-a-week dosing
CD34^+ cells
  migration of CD34^+ cells: increases migration
[2]
  TNFα-induced firm adhesion of T cells (fold change in number of adherent cells): can reduce

B1: SLIT2: recombinant mouse SLIT2 (5444-SL; R&D Systems), ligand of ROBO1 (protein)
chain: QACPAQCSCSGSTVDCHGLALRSVPRNIPRNTERLDLNGNNITRITKIDFAGLRHLRVLQLMENRISTIERGAFQDLKELERLRLNRNNLQLFPELLFLGTAKLYRLDLSENQIQAIPRKAFRGAVDIKNLQLDYNQISCIEDGAFRALRDLEVLTLNNNNITRLSVASFNHMPKLRTFRLHSNNLYCDCHLAWLSDWLRQRPRVGLYTQCMGPSHLRGHNVAEVQKREFVCSGHQSFMAPSCSVLHCPAACTCSNNIVDCRGKGLTEIPTNLPETITEIRLEQNSIRVIPPGAFSPYKKLRRLDLSNNQISELAPDAFQGLRSLNSLVLYGNKITELPKSLFEGLFSLQLLLLNANKINCLRVDAFQDLHNLNLLSLYDNKLQTVAKGTFSALRAIQTMHLAQNPFICDCHLKWLADYLHTNPIETSGARCTSPRRLANKRIGQIKSKKFRCSGTEDYRSKLSGDCFADLACPEKCRCEGTTVDCSNQRLNKIPDHIPQYTAELRLNNNEFTVLEATGIFKKLPQLRKINFSNNKITDIEEGAFEGASGVNEILLTSNRLENVQHKMFKGLESLKTLMLRSNRISCVGNDSFIGLGSVRLLSLYDNQITTVAPGAFDSLHSLSTLNLLANPFNCNCHLAWLGEWLRRKRIVTGNPRCQKPYFLKEIPIQDVAIQDFTCDDGNDDNSCSPLSRCPSECTCLDTVVRCSNKGLKVLPKGIPKDVTELYLDGNQFTLVPKELSNYKHLTLIDLSNNRISTLSNQSFSNMTQLLTLILSYNRLRCIPPRTFDGLKSLRLLSLHGNDISVVPEGAFNDLSALSHLAIGANPLYCDCNMQWLSDWVKSEYKEPGIARCAGPGEMADKLLLTTPSKKFTCQ
[3]
  shear-mediated T cell detachment from VCAM-1- and ICAM-1-coated plates: significant increase in detachment; also recorded: promoted detachment
[3]; listed as Slit-2 peptide containing the LRR domain 2
  shear-mediated T cell detachment from VCAM-1- and ICAM-1-coated plates: stimulated detachment
[3]; listed as recombinant SLIT2
  shear-mediated T cell detachment from VCAM-1- and ICAM-1-coated plates: reversed
